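A five-concentration, 48-hour dose response in 96-well plates underlies each endpoint, interpolated linearly between surrounding concentrations. GI50: concentration for 50% inhibition of growth. Definition used: TGI = concentration required for complete inhibition of growth.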
Legend:
Test in all cases: growth of human tumour cells (NCI), 48 h
LOX IMVI melanoma = system: LOX IMVI melanoma
UACC-62 melanoma = system: UACC-62 melanoma
IGROV1 ovarian = system: IGROV1 ovarian
786-0 renal = system: 786-0 renal
OVCAR-3 ovarian = system: OVCAR-3 ovarian
OVCAR-5 ovarian = system: OVCAR-5 ovarian
SNB-19 CNS = system: SNB-19 CNS
CCRF-CEM leukemia = system: CCRF-CEM leukemia
T-47D breast = system: T-47D breast
OVCAR-8 ovarian = system: OVCAR-8 ovarian
MDA-N = system: MDA-N
RPMI-8226 leukemia = system: RPMI-8226 leukemia

SMILES	TGI (LOX IMVI melanoma) [µM]	TGI (UACC-62 melanoma) [µM]	TGI (IGROV1 ovarian) [µM]	TGI (786-0 renal) [µM]	TGI (OVCAR-3 ovarian)	TGI (OVCAR-5 ovarian)	TGI (SNB-19 CNS) [µM]	TGI (CCRF-CEM leukemia)	TGI (T-47D breast) [µM]	TGI (OVCAR-8 ovarian) [µM]	TGI (MDA-N) [µM]	TGI (RPMI-8226 leukemia)	GI50 (T-47D breast) [µM]	GI50 (OVCAR-8 ovarian) [µM]	GI50 (LOX IMVI melanoma) [µM]	GI50 (UACC-62 melanoma) [µM]	GI50 (OVCAR-3 ovarian)	GI50 (OVCAR-5 ovarian)	GI50 (CCRF-CEM leukemia)	GI50 (RPMI-8226 leukemia)
CN1C/C(=C\c2ccccc2)C2=NN(C(N)=S)[C@H](c3ccccc3)[C@@H]2C1	> 100	> 100	> 100	> 100	> 100 µM	> 100 µM	> 100	> 100 µM												
C=CCSC1=N/C(=C\c2ccc(C)cc2)C(=O)N1CC=C	82.3	> 100	> 100	58.4	> 100 µM	> 100 µM	> 100		78.7	> 100	45.1	31.9 µM								
O=C(O)c1ccccc1Sc1ccc(C=C2NC(=S)N(c3ccccc3)C2=O)s1	> 100	> 100	> 100	35.8	> 100 µM	> 100 µM	> 100		> 100	> 100	> 100	> 100 µM								
O=C1CC2(CCN(Cc3ccccc3)CC2)C(=O)N1N1CCCCC1	> 100	> 100	> 100	> 100	> 100 µM	> 100 µM	> 100		> 100	> 100	> 100	> 100 µM								
c1c2c(cc3c1OCO3)-c1ncc3cc4c(cc3c1C2)OCO4	94.1	9.16	> 100	44.2	0.356 µM	> 100 µM	43.6	> 100 µM	> 100	10.7		> 76.9 µM	> 100	0.111	< 0.01	< 0.0267	0.18 µM	44.7 µM	17.6 µM	0.108 µM
Cc1n[nH]c(=O)c2c3c([nH]c12)-c1ccccc1C3	> 100		> 100	> 100	> 100 µM	> 100 µM	> 100	> 100 µM	> 100	> 100	> 100	> 100 µM								
O=C1c2cccc3cc([N+](=O)[O-])cc(c23)C(=O)N1c1ccc(OCCN2CCCC2)cc1	34.6		41.9	33.4		51.7 µM	80.2	73.5 µM	> 100	> 100	80.3									
CCC(C)C(NC(=O)c1cccc2c(=O)c3ccccc3[nH]c12)C(=O)O (stereo unspecified)	> 100	> 100	> 100	> 100	> 100 µM	> 100 µM	> 100	> 100 µM		> 100	> 100	> 100 µM								
Cc1ccc(NC(c2ccccc2)P(=O)(c2ccccc2)c2ccccc2)cc1 (stereo unspecified)	> 100	> 100	> 100	> 100	> 100 µM	> 100 µM	> 100		> 100	> 100	> 100	> 100 µM								
CC(=O)OC1CCC2(C)C(CCC3C2CCC2(C)C(c4ccc(=O)oc4)C(OC(C)=O)CC32O)C1 (stereo unspecified)	0.38	0.0506	0.169		0.0235 µM	0.173 µM	0.33	0.0556 µM		0.0951		0.0595 µM								
Cc1ccc(-c2ccc3c(c2)Sc2ccccc2O3)n1C	> 100		1.2	> 100	> 100 µM	> 52.9 µM	> 100	3.95 µM	> 100	> 100		0.706 µM								
Cc1c2ccncc2c(C)c2c1[nH]c1ccc(O)cc12					0.435 µg/mL	0.831 µg/mL		0.31 µg/mL				0.129 µg/mL					0.0909 µg/mL	0.239 µg/mL	0.0158 µg/mL	0.0217 µg/mL
COC1=CC(=O)[C@@]2(C)C(C)[C@H](c3ccccc3)[C@H]2C1=O (stereo partly specified)	> 100	> 100	> 100	> 100	> 100 µM	> 100 µM	> 100	> 100 µM		> 100		> 100 µM								
CCN(CC)C(=O)Cc1[nH][nH]c(=O)c1C(=O)N(CC)CC	> 100	> 100	> 100	> 100	> 100 µM		> 100	> 100 µM		> 100		> 100 µM								
CC/C(CC(=O)CCC(=O)Nc1ccc(C)c(C)c1)=N\NC(=O)c1cc2ccccc2cc1O	81.1	43.9	57.5		> 100 µM	> 100 µM	> 100	> 100 µM		> 100										
CC(C)=CC(=O)c1[nH]c2ccccc2c1CC(=O)NCCc1cnc[nH]1	> 100	> 100	> 100	> 100	> 100 µM	> 100 µM	> 100	> 100 µM	> 100	> 100	> 100									
CC(=O)CC(O)(C(F)(F)Cl)C(F)(Cl)Cl (stereo unspecified)	> 10	> 10	> 10	> 10	> 10 µM		> 10	> 10 µM	> 10	> 10	> 10									
C=CCCCCCCCCCOC1C=CC(O)C(CO)O1 (stereo unspecified)	> 100	97.4	59.1	> 100	> 100 µM	> 100 µM	> 100		> 100	37.4	82.1	50.4 µM								
O=C1C=C2SC3C[C@@]24CC1(O)[N+]1=c2c4c(c(O)c4c2=C(C=N4)CC1)N3	1.55	1.51	2.98		0.515 µM	3.8 µM	3.12	2.03 µM		3.63		1.62 µM								
CCOC(=O)CN(CC)C(=O)NC12CC3CC(CC(C3)C1)C2	409	312	> 750		512 µM	545 µM	> 750	631 µM		> 750		454 µM								

Reference: PubChem BioAssay (NCI)
